Literature values in patent US20220304955A1 (Nacuity Pharmaceuticals, Inc., priority 2021, published 2022).

Biological target: T1, glutamate cysteine ligase (GCL, EC 6.3.2.2) (Homo sapiens, UniProt P48506)
T1 sequence (P48506 1-637): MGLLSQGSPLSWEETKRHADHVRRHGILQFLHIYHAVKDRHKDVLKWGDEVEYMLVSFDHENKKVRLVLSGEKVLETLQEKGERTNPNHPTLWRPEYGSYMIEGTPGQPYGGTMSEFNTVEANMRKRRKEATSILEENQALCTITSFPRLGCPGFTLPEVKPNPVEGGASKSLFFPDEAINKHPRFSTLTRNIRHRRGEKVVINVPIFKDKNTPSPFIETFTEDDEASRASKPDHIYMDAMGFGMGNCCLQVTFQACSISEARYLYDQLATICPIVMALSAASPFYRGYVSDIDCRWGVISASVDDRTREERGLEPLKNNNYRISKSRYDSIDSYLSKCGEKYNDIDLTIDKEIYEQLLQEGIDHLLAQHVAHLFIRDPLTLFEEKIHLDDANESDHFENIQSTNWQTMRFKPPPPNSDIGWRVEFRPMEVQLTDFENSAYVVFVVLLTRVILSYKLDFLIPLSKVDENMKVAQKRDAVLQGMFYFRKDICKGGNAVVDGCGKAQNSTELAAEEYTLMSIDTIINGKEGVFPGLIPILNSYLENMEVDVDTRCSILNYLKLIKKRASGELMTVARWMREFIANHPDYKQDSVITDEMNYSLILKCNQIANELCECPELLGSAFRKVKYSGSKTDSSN
T1 sequence (P48507 1-274 partner): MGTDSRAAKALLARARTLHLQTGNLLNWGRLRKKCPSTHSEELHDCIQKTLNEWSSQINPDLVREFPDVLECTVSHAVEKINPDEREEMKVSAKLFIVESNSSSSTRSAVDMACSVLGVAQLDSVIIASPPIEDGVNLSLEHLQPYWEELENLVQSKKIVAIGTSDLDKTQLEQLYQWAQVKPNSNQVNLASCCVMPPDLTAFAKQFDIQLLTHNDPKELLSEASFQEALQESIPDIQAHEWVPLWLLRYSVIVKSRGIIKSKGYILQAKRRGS
Settings: read-out: apparent Km; cited from earlier work

N[C@@H](CS)C(=O)O [cysteine, L-cysteine]
Km: 100 to 300 µM
